Reference: US20050090529A1, “3,5 Disubstituted indazole compounds with nitrogen-bearing 5-membered heterocycles, pharmaceutical compositions, and methods for mediating or inhibiting cell proliferation” (PFIZER INC, priority 2003, published 2005)
pKi: −log10 of the molar value. In brackets after ≈: the same amount, converted by molar mass.

Columns and labels:
CDK2/Cyclin A = target: T1, CDK2/Cyclin A (Homo sapiens, UniProt P24941); assay: Inhibition of CDK2/Cyclin A retinoblastoma kinase activity (apparent Ki); format: biochemical; conditions: read-out: CDK2 Ki
T1 construct: made in house; host or cells: CDK2: insect cells (baculovirus); cyclin A: E. coli
Method: Cyclin-dependent kinase activity was measured by quantifying the enzyme-catalyzed, time-dependent incorporation of radioactive phosphate from [^32P]ATP or [^33P]ATP into a protein substrate. […] Reactions were initiated with enzyme, incubated at 30° C., and terminated after 20 minutes by the addition of ethylenediaminetetraacetic acid (EDTA) to 250 mM. […] Radioactivity was quantified by exposing the dried membranes to a phosphorimager.
Apparent Ki values were measured by assaying enzyme activity in the presence of different inhibitor compound concentrations and subtracting the background radioactivity measured in the absence of enzyme. Inhibition data were fit to an equation for competitive inhibition using Kaleidagraph (Synergy Software), or were fit to an equation for competitive tight-binding inhibition using the software KineTic (BioKin, Ltd.).
A complex of CDK2 and proteolyzed cyclin A was prepared and purified by gel filtration. […] Ki values were measured as described above.

[1] = Measurement of kinetic solubility; conditions: pH 6.5, aqueous buffer, kinetic from dmso stock
Method: Kinetic solubility was determined with a […] stock solution from the compound(s) of interest. […] Samples and standards were then centrifuged and an aliquot was removed for HPLC analysis. Samples and standards were analyzed by HPLC and a final concentration for the sample was determined based on a one-point calibration curve from the corresponding standard. Results were reported as μg's/mL.

Row | Structure (SMILES) | pKi (CDK2/Cyclin A) | solubility ([1]; 100 mM sodium phosphate buffer) | solubility [1]
1 | CCNCc1cncc(-c2ccc3[nH]nc(-c4nc(-c5ccccc5)c(C)[nH]4)c3c2)c1C [Example 29, Ethyl-{4-methyl-5-[3-(5-methyl-4-phenyl-1H-imidazol-2-yl)-1H-indazol-5-yl]-pyridin-3-ylmethyl}-amine] | > 7.30 | 20 to 120 µg/mL (≈ 47.3 to 284 µM) | –
2 | CCNCc1cncc(-c2ccc3[nH]nc(-c4nc(C(=O)NC5CC6CCC(C5)N6)c[nH]4)c3c2)c1C (stereo not drawn) [Example 77, N-8-azabicyclo[3.2.1]oct-3-yl-2-(5-{5-[(ethylamino)methyl]-4-methylpyridin-3-yl}-1H-indazol-3-yl)-1H-imidazole-5-carboxamide] | < 6.70 | > 120 µg/mL | –
3 | CCNCc1cncc(-c2ccc3[nH]nc(-c4nc(-c5ccccc5)c(C(=O)N5CCOCC5)[nH]4)c3c2)c1C [Example 10, {2-[5-(5-Ethylaminomethyl-4-methyl-pyridin-3-yl)-1H-indazol-3-yl]-5-phenyl-3H-imidazol-4-yl}-morpholin-4-yl-methanone] | < 6.70 | 20 to 120 µg/mL (≈ 38.3 to 230 µM) | –
4 | CCNCc1cncc(-c2ccc3[nH]nc(-c4nc(C(=O)NCc5cccnc5)c[nH]4)c3c2)c1C [Example 49, 2-(5-{5-[(ethylamino)methyl]-4-methylpyridin-3-yl}-1H-indazol-3-yl)-N-(pyridin-3-ylmethyl)-1H-imidazole-5-carboxamide] | > 7.30 | > 120 µg/mL | –
5 | CCNCc1cncc(-c2ccc3[nH]nc(-c4ncc(C(=O)N5Cc6ccccc6C5)[nH]4)c3c2)c1C [Example 68, N-[(5-{3-[5-(1,3-dihydro-2H-isoindol-2-ylcarbonyl)-1H-imidazol-2-yl]-1H-indazol-5-yl}-4-methylpyridin-3-yl)methyl]ethanamine] | > 7.30 | < 20 µg/mL | –
6 | CCNCc1cncc(-c2ccc3[nH]nc(-c4nc(-c5cc(Cl)cc(Cl)c5)c(C)[nH]4)c3c2)c1C [Example 26, (5-{3-[4-(3,5-Dichloro-phenyl)-5-methyl-1H-imidazol-2-yl]-1H-indazol-5-yl}-4-methyl-pyridin-3-ylmethyl)-ethyl-amine] | > 7.30 | < 20 µg/mL | –
7 | CCNCc1cncc(-c2ccc3[nH]nc(-c4nc(C(=O)NCC)c[nH]4)c3c2)c1C [Example 63, N-ethyl-2-(5-{5-[(ethylamino)methyl]-4-methylpyridin-3-yl}-1H-indazol-3-yl)-1H-imidazole-5-carboxamide] | > 7.30 | > 120 µg/mL | –
8 | CCNCc1cncc(-c2ccc3[nH]nc(-c4ncc(C(=O)N5CC=C(c6ccccc6)CC5)[nH]4)c3c2)c1C [Example 67, N-{[4-methyl-5-(3-{5-[(4-phenyl-3,6-dihydropyridin-1(2H)-yl)carbonyl]-1H-imidazol-2-yl}-1H-indazol-5-yl)pyridin-3-yl]methyl}ethanamine] | > 7.30 | 20 to 120 µg/mL (≈ 38.6 to 232 µM) | –
9 | CCNCc1cncc(-c2ccc3[nH]nc(-c4ncc(C(=O)N5CCN(Cc6ccccc6)CC5)[nH]4)c3c2)c1C [Example 66, N-{[5-(3-{5-[(4-benzylpiperazin-1-yl)carbonyl]-1H-imidazol-2-yl}-1H-indazol-5-yl)-4-methylpyridin-3-yl]methyl}ethanamine] | > 7.30 | – | > 120 µg/mL
10 | CCNCc1cncc(-c2ccc3[nH]nc(-c4ncc[nH]4)c3c2)c1C [Example 1, 5-(5-ethylaminomethyl-4-methylpyridin-3-yl)-3-(1H-imidazol-2-yl)-1H-indazole] | > 7.30 | > 120 µg/mL | –
11 | CCNCc1cncc(-c2ccc3[nH]nc(-c4ncc(C(=O)N5CCC(Cc6ncccn6)CC5)[nH]4)c3c2)c1C [Example 85, N-({4-methyl-5-[3-(5-{[4-(pyrimidin-2-ylmethyl)piperidin-1-yl]carbonyl}-1H-imidazol-2-yl)-1H-indazol-5-yl]pyridin-3-yl}methyl)ethanamine] | > 7.30 | > 120 µg/mL | –
12 | CCNCc1cncc(-c2ccc3[nH]nc(-c4nc(-c5cccc(OC)c5)c[nH]4)c3c2)c1C [Example 35, Ethyl-(5-{3-[4-(3-methoxy-phenyl)-1H-imidazol-2-yl]-1H-indazol-5-yl}-4-methyl-pyridin-3-ylmethyl)-amine] | > 7.30 | 20 to 120 µg/mL (≈ 45.6 to 274 µM) | –
13 | CCNCc1cncc(-c2ccc3[nH]nc(-c4nc(-c5ccccc5)c(C(=O)N5CCCC5)[nH]4)c3c2)c1C [Example 4, {2-[5-(5-Ethylaminomethyl-4-methyl-pyridin-3-yl)-1H-indazol-3-yl]-5-phenyl-3H-imidazol-4-yl}-pyrrolidin-1-yl-methanone] | 6.70 to 7.30 | 20 to 120 µg/mL (≈ 39.6 to 237 µM) | –
14 | CCNCc1cncc(-c2ccc3[nH]nc(-c4ncc(C(=O)NCCN(C)C)[nH]4)c3c2)c1C [Example 54, N-[2-(dimethylamino)ethyl]-2-(5-{5-[(ethylamino)methyl]-4-methylpyridin-3-yl}-1H-indazol-3-yl)-1H-imidazole-5-carboxamide] | > 7.30 | > 120 µg/mL | –
15 | CCNCc1cncc(-c2ccc3[nH]nc(-c4ncc(C(=O)N5CCN(Cc6ccccn6)CC5)[nH]4)c3c2)c1C [Example 83, N-({4-methyl-5-[3-(5-{[4-(pyridin-2-ylmethyl)piperazin-1-yl]carbonyl}-1H-imidazol-2-yl)-1H-indazol-5-yl]pyridin-3-yl}methyl)ethanamine] | > 7.30 | > 120 µg/mL | –
16 | CCOCc1cncc(-c2ccc3[nH]nc(-c4ncc[nH]4)c3c2)c1C [Example 44, 5-(5-Ethoxymethyl-4-methyl-pyridin-3-yl)-3-(1H-imidazol-2-yl)-1H-indazole] | 6.70 to 7.30 | > 120 µg/mL | –
17 | CCNCc1cncc(-c2ccc3[nH]nc(-c4nc(-c5ccccc5)c(C(=O)NCc5ccccc5)[nH]4)c3c2)c1C [Example 5, 2-[5-(5-Ethylaminomethyl-4-methyl-pyridin-3-yl)-1H-indazol-3-yl]-5-phenyl-3H-imidazole-4-carboxylic acid benzylamide] | > 7.30 | 20 to 120 µg/mL (≈ 36.9 to 222 µM) | –
18 | CCNCc1cncc(-c2ccc3[nH]nc(-c4nc(C(=O)O)c[nH]4)c3c2)c1C [Example 86, 2-(5-{5-[(ethylamino)methyl]-4-methylpyridin-3-yl}-1H-indazol-3-yl)-1H-imidazole-5-carboxylic acid] | 6.70 to 7.30 | > 120 µg/mL | –
19 | CCNCc1cncc(-c2ccc3[nH]nc(-c4nc(-c5ccccc5)c(C(=O)N(C)C5CCCCC5)[nH]4)c3c2)c1C [Example 13, 2-[5-(5-Ethylaminomethyl-4-methyl-pyridin-3-yl)-1H-indazol-3-yl]-5-phenyl-3H-imidazole-4-carboxylic acid cyclohexyl-methyl-amide] | < 6.70 | 20 to 120 µg/mL (≈ 36.5 to 219 µM) | –
20 | CCNCc1cncc(-c2ccc3[nH]nc(-c4nc(-c5ccc(OC)cc5)c[nH]4)c3c2)c1C [Example 34, Ethyl-(5-{3-[4-(4-methoxy-phenyl)-1H-imidazol-2-yl]-1H-indazol-5-yl}-4-methyl-pyridin-3-ylmethyl)-amine] | > 7.30 | – | –
21 | CNCc1cncc(-c2ccc3[nH]nc(-c4ncc[nH]4)c3c2)c1C [Example 45, {5-[3-(1H-Imidazol-2-yl)-1H-indazol-5-yl]-4-methyl-pyridin-3-ylmethyl}-methyl-amine] | > 7.30 | – | –
22 | CCNCc1cncc(-c2ccc3[nH]nc(-c4ncc(C(=O)N(C)C5CCN(Cc6ccccc6)C5)[nH]4)c3c2)c1C (stereo not drawn) [Example 82, N-(1-benzylpyrrolidin-3-yl)-2-(5-{5-[(ethylamino)methyl]-4-methylpyridin-3-yl}-1H-indazol-3yl)-N-methyl-1H-imidazole-5-carboxamide] | > 7.30 | – | –
23 | CCNCc1cncc(-c2ccc3[nH]nc(-c4ncc(C(=O)N5CCC(Oc6ccccc6)CC5)[nH]4)c3c2)c1C [Example 70, N-{[4-methyl-5-(3-{5-[(4-phenoxypiperidin-1-yl)carbonyl]-1H-imidazol-2-yl}-1H-indazol-5-yl)pyridin-3-yl]methyl}ethanamine] | > 7.30 | – | –
24 | CCNCc1cncc(-c2ccc3[nH]nc(-c4ncc(C(=O)N(C)C5CCN(C)C5)[nH]4)c3c2)c1C (stereo not drawn) [Example 84, 2-(5-{5-[(ethylamino)methyl]-4-methylpyridin-3-yl}-1H-indazol-3-yl)-N-methyl-N-(1-methylpyrrolidin-3-yl)-1H-imidazole-5-carboxamide] | 6.70 to 7.30 | – | –
25 | CCNCc1cncc(-c2ccc3[nH]nc(-c4cc(C)n[nH]4)c3c2)c1C [Example 89, Ethyl-{4-methyl-5-[3-(5-methyl-2H-pyrazol-3-yl)-1H-indazol-5-yl]-pyridin-3-ylmethyl}-amine] | > 7.30 | – | –
26 | CCc1nc(-c2n[nH]c3ccc(-c4cncc(N)c4C)cc23)[nH]c1CC [Example 37, 5-[3-(4,5-Diethyl-1H-imidazol-2-yl)-1H-indazol-5-yl]-4-methyl-pyridin-3-ylamine] | > 7.30 | – | –
27 | Cc1c(N)cncc1-c1ccc2[nH]nc(-c3nc(-c4cccc(F)c4)c[nH]3)c2c1 [Example 38, 5-{3-[4-(3-Fluoro-phenyl)-1H-imidazol-2-yl]-1H-indazol-5-yl}-4-methyl-pyridin-3-ylamine] | > 7.30 | – | –
28 | CCNCc1cncc(-c2ccc3[nH]nc(-c4nc5c([nH]4)CCCC5)c3c2)c1C [Example 21, Ethyl-{4-methyl-5-[3-(4,5,6,7-tetrahydro-1H-benzoimidazol-2-yl)-1H-indazol-5-yl]-pyridin-3-ylmethyl}-amine] | > 7.30 | – | –
29 | Cc1c(N)cncc1-c1ccc2[nH]nc(-c3nc(-c4ccc(F)cc4)c[nH]3)c2c1 [Example 40, 5-{3-[4-(4-Fluoro-phenyl)-1H-imidazol-2-yl]-1H-indazol-5-yl}-4-methyl-pyridin-3-ylamine] | > 7.30 | – | –
